The results in this text go back to article PMC3086245 (Emerging Infectious Diseases, 2010).

The target of assay [1] is NA of oseltamivir-resistant influenza viruses A (H1N1) (ORVs) with H275Y (Influenza A virus (H1N1), UniProt E3JK96). It is filed as biochemical.
The test system of assay [2] is influenza viruses A (H1N1) isolates, H275Y on N1 NA protein. Set-up: species or system influenza virus A (H1N1).

As to `CC(=O)N[C@H]1[C@H]([C@H](O)[C@H](O)CO)OC(C(=O)O)=C[C@@H]1N=C(N)N` [Zanamivir, zanamivir], the “sensitivity of ORVs to the drug (in words)” value in assay [1] is on record as “sensitive”.
Turning to `CCOC(=O)C1=C[C@@H](OC(CC)CC)[C@H](NC(C)=O)[C@@H](N)C1` [Oseltamivir, oseltamivir], the “susceptibility to oseltamivir (in words)” value in assay [2] is “resistant”.
